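How tested: cells in 96-well plates exposed to compound for 48 hours at five concentrations. TGI denotes the concentration required for complete inhibition of growth.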 Where only a bound is given, the exact number is not on record here.

These results are taken from PubChem BioAssay (NCI).

Holding throughout (test): inhibition of tumour cell growth, NCI panel, 48 h
Experiment [1] deals with MDA-MB-231 breast.
The test system of experiment [2] is U251 CNS.
The subject of experiment [3] is K-562 leukemia.
Experiment [4] concerns CCRF-CEM leukemia.
Experiment [5] relates to SK-MEL-5 melanoma.
Experiment [6] relates to SK-OV-3 ovarian.
For experiment [7], the system named is NCI-H226 lung.
In experiment [8] the test system is RXF 393 renal.
For experiment [9], the system named is SNB-75 CNS.
The subject of experiment [10] is HCC-2998 colon.

Consider `CC1CN=C(c2ccc3c(c2)Cc2cc(C4=NCC(C)N4)ccc2-3)N1` (stereo not given), for which the TGI is greater than 100 µM in [1]; 46.7 µM in experiment [2]; greater than 100 µM in experiment [3]; greater than 100 µM in experiment [4]; greater than 100 µM in experiment [5]; greater than 100 µM in experiment [6]. Besides, the TGI in experiment [7] is greater than 100 µM; in [8] it was greater than 100 µM; in experiment [9], greater than 100 µM; in experiment [10] it was 39.2 µM.

`c1ccc2c3c(c(N4CCNCC4)nc2c1)CCCC3`: the TGI is 27.4 µM in experiment [1]; 26.2 µM in [2]; greater than 100 µM in [3]; 31.4 µM in experiment [4]; 24.3 µM in experiment [5]; 42.7 µM in experiment [6]. Also, the TGI was determined as 29.6 µM in experiment [7], 22.7 µM in experiment [8], 27 µM in experiment [9] and 4.15 µM in experiment [10].
